# Measured values from patent publication US20260078130A1, “NAMPT MODULATORS, PREPARATIONS, AND USES THEREOF” (SIRONAX LTD., priority 2022, published 2026).
# Key:
# [1] = target: T1, human enzyme NAMPT (full length) (Homo sapiens, UniProt P43490); assay: NMN fluorescence biochemical assay (stimulation of NMN synthesis by NAMPT); conditions: for EC50: NMN synthesis by purified human NAMPT (100 nM), concentration giving half-maximal activation, read-out: Enzymatic EC50; for Enzymatic Emax: fold change of maximal activation compared to DMSO
# T1 construct: human enzyme NAMPT (full length)
# Summary of the method: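 Full-length human NAMPT (100 nM) was preincubated 15 min at 37 °C with compound in 50 mM Tris-HCl pH 7.5, 10 mM MgCl2, 2 mM DTT, then reacted 1 h at 37 °C with 50 μM NAM, 100 μM PRPP, 4 mM ATP (stated solution concentrations). NMN was derivatised with acetophenone/KOH then formic acid and read at Ex/Em 382/445 nm; EC50 and Emax (fold over DMSO) reported.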
# [2] = test system: endogenous NAMPT in U2OS cells; assay: Cellular NAD+ modulation assay (NAD/NADH-Glo, U2OS cells); assay type: cell-based; conditions: Homo sapiens, 24 hours incubation with compound; for maximal fold induction: read-out: Cellular Emax
# Summary of the method: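 NAD/NADH-Glo luminescence quantified NAD+ after acid treatment (60 °C, 15 min) and neutralization of DTAB lysates. Beforehand, U2OS cells seeded 16 h earlier received compound concentration series for 24 h at 37 °C. Values given as half-maximal activation concentration (EC50) and maximal fold change versus DMSO (Emax).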
# T1 sequence (P43490 whole entry): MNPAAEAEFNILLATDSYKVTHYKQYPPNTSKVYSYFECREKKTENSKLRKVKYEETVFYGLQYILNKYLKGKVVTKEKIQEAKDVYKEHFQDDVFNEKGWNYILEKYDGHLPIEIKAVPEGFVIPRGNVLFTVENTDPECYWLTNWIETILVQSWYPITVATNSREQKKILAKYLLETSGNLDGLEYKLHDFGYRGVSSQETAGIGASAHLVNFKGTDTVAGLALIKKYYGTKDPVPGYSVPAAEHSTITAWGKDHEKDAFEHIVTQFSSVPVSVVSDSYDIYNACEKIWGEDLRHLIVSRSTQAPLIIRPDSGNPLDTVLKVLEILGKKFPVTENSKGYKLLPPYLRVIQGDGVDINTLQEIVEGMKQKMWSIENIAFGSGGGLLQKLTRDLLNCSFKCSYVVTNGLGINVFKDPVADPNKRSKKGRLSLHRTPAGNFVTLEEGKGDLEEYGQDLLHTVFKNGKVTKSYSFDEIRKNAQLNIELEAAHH
Compound,EC50 [1] [nM],Enzymatic Emax [1],EC50 [2] [nM],maximal fold induction [2]
"N#Cc1ccc2c(c1)C(Cc1c(Cl)ccnc1C#N)N(Cc1ccc3[nH]c(=O)oc3c1)C2=O (centres unmarked) [Compound 276, 3-((4-chloro-2-cyanopyridin-3-yl)methyl)-1-oxo-2-((2-oxo-2,3-dihydrobenzo[d]oxazol-6-yl)methyl)isoindoline-5-carbonitrile]",< 500,A (A>3),< 500,> 1.5
"COCCn1cc(Cl)c(CC2c3ccccc3C(=O)N2Cc2ccc3[nH]c(=O)oc3c2)n1 (centres unmarked) [Compound 277, 6-((1-((4-chloro-1-(2-methoxyethyl)-1H-pyrazol-3-yl)methyl)-3-oxoisoindolin-2-yl)methyl) benzo[d]oxazol-2(3H)-one]",500 to 5000,A (A>3),< 500,> 1.5
"N#Cc1cncc(Cl)c1CC1c2ccccc2C(=O)N1Cc1ccc2[nH]nnc2c1 (centres unmarked) [Compound 278, 4-((2-((1H-benzo[d][1,2,3]triazol-5-yl)methyl)-3-oxoisoindolin-1-yl)methyl)-5-chloronicotinonitrile]",< 500,A (A>3),< 500,> 1.5
"Cn1ncc(Cl)c1CC1c2ccccc2C(=O)N1Cc1ccc2[nH]nnc2c1 (centres unmarked) [Compound 279, 2-((1H-benzo[d][1,2,3]triazol-5-yl)methyl)-3-((4-chloro-1-methyl-1H-pyrazol-5-yl)methyl) isoindolin-1-one]",< 500,B (3≥B>2),< 500,> 1.5
"N#Cc1nccc(Br)c1CC1c2ccccc2C(=O)N1Cc1ccc2[nH]nnc2c1 (centres unmarked) [Compound 282, 3-((2-((1H-benzo[d][1,2,3]triazol-5-yl)methyl)-3-oxoisoindolin-1-yl)methyl)-4-bromopicolinonitrile]",< 500,B (3≥B>2),< 500,1.2 to 1.5
"N#Cc1cncc(C#N)c1CC1c2ccccc2C(=O)N1Cc1ccc2[nH]c(=O)oc2c1 (centres unmarked) [Compound 283, 4-((3-oxo-2-((2-oxo-2,3-dihydrobenzo[d]oxazol-6-yl)methyl)isoindolin-1-yl)methyl) pyridine-3,5-dicarbonitrile]",< 500,A (A>3),< 500,1.2 to 1.5
"Cc1ccnc(C#N)c1CC1c2ccccc2C(=O)N1Cc1ccc2[nH]nnc2c1 (centres unmarked) [Compound 284, 3-((2-((1H-benzo[d][1,2,3]triazol-5-yl)methyl)-3-oxoisoindolin-1-yl)methyl)-4-methylpicolinonitrile]",< 500,A (A>3),< 500,1.2 to 1.5
"O=C1c2ccccc2CN1Cc1ccc2[nH]nnc2c1 [Compound 289, 2-((1H-benzo[d][1,2,3]triazol-5-yl)methyl)isoindolin-1-one]",≥ 5000,C (2≥C),5000 to 50000,1.2 to 1.5
"CC1c2ccccc2C(=O)N1Cc1ccc(NC(=O)NCc2ccncc2)cc1 (centres unmarked) [Compound 291, 1-(4-((1-methyl-3-oxoisoindolin-2-yl)methyl)phenyl)-3-(pyridin-4-ylmethyl)urea]",< 500,C (2≥C),< 500,1.2 to 1.5
"CC1c2ccccc2C(=O)N1Cc1ccc(NC(=O)NCc2cn[nH]c2)cc1 (centres unmarked) [Compound 292, 1-((1H-pyrazol-4-yl)methyl)-3-(4-((1-methyl-3-oxoisoindolin-2-yl)methyl)phenyl)urea]",< 500,C (2≥C),< 500,≤ 1.2
"NC(=O)Nc1ccc(CN2Cc3ccccc3C2=O)cc1 [Compound 293, 1-(4-((1-oxoisoindolin-2-yl)methyl)phenyl)urea]",< 500,C (2≥C),5000 to 50000,> 1.5
"COC(=O)Nc1ccc(CN2Cc3ccccc3C2=O)cc1 [Compound 294, methyl (4-((1-oxoisoindolin-2-yl)methyl)phenyl)carbamate]",≥ 5000,C (2≥C),5000 to 50000,> 1.5
"Cc1cccc2c1C(=O)N(Cc1ccc(O)cc1)C2=O [Compound 295, 2-(4-hydroxybenzyl)-4-methylisoindoline-1,3-dione]",500 to 5000,C (2≥C),500 to 5000,1.2 to 1.5
"O=C1c2cccc(Br)c2C(=O)N1Cc1ccc(O)cc1 [Compound 296, 4-bromo-2-(4-hydroxybenzyl)isoindoline-1,3-dione]",500 to 5000,C (2≥C),500 to 5000,1.2 to 1.5
